Source: patent US7655665B2, “Nitromethylene derivatives and their use” (East China University of Science and Technology, priority 2004, dated 2010)

Key:
Nilaparvata lugens = assay: Insecticidal activity against Nilaparvata lugens (planthopper) by spraying; type: in vivo; conditions: 500 ppm; for mortality (%) (500 ppm) Nilaparvata-lugens: spraying 2 ml per tumbler, killed counted after 24 hours
Summary of the method: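 Ten planthoppers per tumbler were introduced 6 hours before spraying with 2 ml of test solution, with clean water as blank control. Each treatment had 3 replicates, and three series were run. Mortality was counted after 24 hours.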

Aphis craccivoral = assay: Insecticidal activity against Aphis craccivoral by immersing (dipping aphids on bean sprout); type: in vivo; conditions: 23° C.
Summary of the method: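 Wingless adult A. craccivora feeding on bean sprouts dipped 5 seconds in compound at 500 ug/mL (0.2 mL/L Triton X-100 aqueous), then held at 23 °C. Mortality counted after 24 hours, three replicates, vehicle-only control.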

[1] = 500 ppm (500 ug/mL dilution), dipped 5 seconds, killed aphis counted after 24 hours

| SMILES | mortality (%) (500 ppm) Nilaparvata lugens (Nilaparvata lugens; spraying 2 ml, counted after 24 hours) | mortality (%) (500 ppm) Aphis (Aphis craccivoral; 500 ppm, immersing (dipped 5 seconds), counted after 24 hours) | mortality (%) (500 ppm) Nilaparvata-lugens (Nilaparvata lugens) | mortality (%) (500 ppm) Aphis (Aphis craccivoral; [1]) |
| --- | --- | --- | --- | --- |
| O=C(OC1CCC([N+](=O)[O-])=C2N(Cc3cnc(Cl)s3)CCN21)c1cc(F)c(Cl)cc1Cl (stereo not shown) [Compound 164] | 78% | 59% |  |  |
| O=C(OC1CCC([N+](=O)[O-])=C2N(Cc3cnc(Cl)s3)CCN21)c1ccc(C(F)(F)F)cc1 (stereo not shown) [Compound 165] |  |  | 100% | 90% |
| O=C(OC1CCC([N+](=O)[O-])=C2N(Cc3cnc(Cl)s3)CCN21)c1cc(F)c(F)cc1F (stereo not shown) [Compound 166] |  |  | 45% | 0% |
| O=C(OC1CCC([N+](=O)[O-])=C2N(Cc3cnc(Cl)s3)CCN21)c1cc(F)c(F)c(F)c1F (stereo not shown) [Compound 167] |  |  | 4% | 12% |
| O=C(OC1CCC([N+](=O)[O-])=C2N(Cc3cnc(Cl)s3)CCN21)c1ccccc1F (stereo not shown) [Compound 168] |  |  | 100% | 56% |
| O=C(OC1CCC([N+](=O)[O-])=C2N(Cc3cnc(Cl)s3)CCN21)c1cc(F)c(F)c([N+](=O)[O-])c1F (stereo not shown) [Compound 169] |  |  | 13% | 2% |
| O=C(OC1CCC([N+](=O)[O-])=C2N(Cc3cnc(Cl)s3)CCN21)c1ccc(Cl)c(Cl)c1 (stereo not shown) [Compound 170] |  |  | 0% | 2% |
| CSC1CCC([N+](=O)[O-])=C2N(Cc3cnc(Cl)s3)CCN21 (stereo not shown) [Compound 171] |  |  | 100% | 97% |
| CCSC1CCC([N+](=O)[O-])=C2N(Cc3cnc(Cl)s3)CCN21 (stereo not shown) [Compound 172] |  |  | 100% | 100% |
| O=[N+]([O-])C1=C2N(Cc3cnc(Cl)s3)CCN2C(SCC(F)(F)F)CC1 (stereo not shown) [Compound 174] |  |  | 100% | 67% |
| CCCSC1CCC([N+](=O)[O-])=C2N(Cc3cnc(Cl)s3)CCN21 (stereo not shown) [Compound 175] |  |  | 100% | 89% |
| CC(C)SC1CCC([N+](=O)[O-])=C2N(Cc3cnc(Cl)s3)CCN21 (stereo not shown) [Compound 176] |  |  | 98% | 78% |
| CCCCSC1CCC([N+](=O)[O-])=C2N(Cc3cnc(Cl)s3)CCN21 (stereo not shown) [Compound 178] |  |  | 12% | 23% |
| CC(C)CSC1CCC([N+](=O)[O-])=C2N(Cc3cnc(Cl)s3)CCN21 (stereo not shown) [Compound 179] |  |  | 56% | 12% |
| CCC(C)SC1CCC([N+](=O)[O-])=C2N(Cc3cnc(Cl)s3)CCN21 (stereo not shown) [Compound 180] |  |  | 78% | 34% |
| CC(C)(C)SC1CCC([N+](=O)[O-])=C2N(Cc3cnc(Cl)s3)CCN21 (stereo not shown) [Compound 181] |  |  | 78% | 45% |
| CCCCCSC1CCC([N+](=O)[O-])=C2N(Cc3cnc(Cl)s3)CCN21 (stereo not shown) [Compound 182] |  |  | 87% | 67% |
| CC(C)CCSC1CCC([N+](=O)[O-])=C2N(Cc3cnc(Cl)s3)CCN21 (stereo not shown) [Compound 183] |  |  | 34% | 23% |
| CCCC(C)SC1CCC([N+](=O)[O-])=C2N(Cc3cnc(Cl)s3)CCN21 (stereo not shown) [Compound 184] |  |  | 35% | 12% |
| CC(C)(C)CSC1CCC([N+](=O)[O-])=C2N(Cc3cnc(Cl)s3)CCN21 (stereo not shown) [Compound 185] |  |  | 86% | 36% |
| COCCSC1CCC([N+](=O)[O-])=C2N(Cc3cnc(Cl)s3)CCN21 (stereo not shown) [Compound 186] |  |  | 100% | 97% |

| SMILES | mortality (%) (500 ppm) Nilaparvata lugens (Nilaparvata lugens; spraying 2 ml, counted after 24 hours) | mortality (%) (500 ppm) Aphis (Aphis craccivoral; 500 ppm, immersing (dipped 5 seconds), counted after 24 hours) | mortality (%) (500 ppm) Nilaparvata-lugens (Nilaparvata lugens) | mortality (%) (500 ppm) Aphis (Aphis craccivoral; [1]) |
| --- | --- | --- | --- | --- |
| N=C1CCC([N+](=O)[O-])=C2N(Cc3ccc(Cl)nc3)CCN12 [Compound 188] |  |  | 67% | 55% |
| CN=C1CCC([N+](=O)[O-])=C2N(Cc3ccc(Cl)nc3)CCN12 [Compound 189] |  |  | 100% | 100% |
| CCN=C1CCC([N+](=O)[O-])=C2N(Cc3ccc(Cl)nc3)CCN12 [Compound 190] |  |  | 100% | 89% |
| O=[N+]([O-])C1=C2N(Cc3ccc(Cl)nc3)CCN2C(=NCCCl)CC1 [Compound 191] |  |  | 78% | 53% |
| CCCN=C1CCC([N+](=O)[O-])=C2N(Cc3ccc(Cl)nc3)CCN12 [Compound 192] |  |  | 100% | 86% |
| CC(C)N=C1CCC([N+](=O)[O-])=C2N(Cc3ccc(Cl)nc3)CCN12 [Compound 193] |  |  | 98% | 93% |
| CCCCN=C1CCC([N+](=O)[O-])=C2N(Cc3ccc(Cl)nc3)CCN12 [Compound 194] |  |  | 45% | 34% |
| CCCCCN=C1CCC([N+](=O)[O-])=C2N(Cc3ccc(Cl)nc3)CCN12 [Compound 195] |  |  | 78% | 46% |
| CC(C)CCN=C1CCC([N+](=O)[O-])=C2N(Cc3ccc(Cl)nc3)CCN12 [Compound 196] |  |  | 25% | 12% |
| CCCC(C)N=C1CCC([N+](=O)[O-])=C2N(Cc3ccc(Cl)nc3)CCN12 (stereo not shown) [Compound 197] |  |  | 56% | 8% |
| CC(C)(C)CN=C1CCC([N+](=O)[O-])=C2N(Cc3ccc(Cl)nc3)CCN12 [Compound 198] |  |  | 89% | 39% |
| COCCN=C1CCC([N+](=O)[O-])=C2N(Cc3ccc(Cl)nc3)CCN12 [Compound 199] |  |  | 36% | 16% |
| CCOCCN=C1CCC([N+](=O)[O-])=C2N(Cc3ccc(Cl)nc3)CCN12 [Compound 200] |  |  | 78% | 45% |
| N=C1CCC([N+](=O)[O-])=C2N(Cc3ccc(Cl)nc3)CCCN12 [Compound 201] |  |  | 55% | 54% |
| CN=C1CCC([N+](=O)[O-])=C2N(Cc3ccc(Cl)nc3)CCCN12 [Compound 202] |  |  | 98% | 89% |
| CCN=C1CCC([N+](=O)[O-])=C2N(Cc3ccc(Cl)nc3)CCCN12 [Compound 203] |  |  | 100% | 92% |
| O=[N+]([O-])C1=C2N(Cc3ccc(Cl)nc3)CCCN2C(=NCCCl)CC1 [Compound 204] |  |  | 78% | 46% |
| CCCN=C1CCC([N+](=O)[O-])=C2N(Cc3ccc(Cl)nc3)CCCN12 [Compound 205] |  |  | 100% | 35% |
| CC(C)N=C1CCC([N+](=O)[O-])=C2N(Cc3ccc(Cl)nc3)CCCN12 [Compound 206] |  |  | 98% | 56% |
| CCCCN=C1CCC([N+](=O)[O-])=C2N(Cc3ccc(Cl)nc3)CCCN12 [Compound 207] |  |  | 45% | 14% |
